# Results: patent US8392127B2, “Methods and gene expression signature for assessing growth factor signaling pathway regulation status” (Merck Sharp & Dohme Corp., priority 2008, dated 2013)
# “Also recorded” adds a separate entry of the source. Like-named read-outs stand apart in the source and are kept apart here.
# Legend:
# HCT116 = test: Sensitivity to cell killing by cMET inhibitor MK-2461; assay type: cell-based
# HCT15 (or AGS) = test: as above; assay type: cell-based
# A549 = test: as above; assay type: cell-based
# HT29 = test: as above; assay type: cell-based
# Colo205 = test: as above; assay type: cell-based
# EBC-1 = test: as above; assay type: cell-based
# GTL-16 = test: as above; assay type: cell-based
# [1] = system: growth factor signaling pathway signature in EBC-1; test: Growth factor signaling pathway signature score after MK-2461 in cell lines (microarray); assay type: cell-based; conditions: 1 μM, 6 and 12 hours post-treatment
# Procedure: (§1) Ten cell lines with alternations of the PI3K/MAPK pathway components were identified (see Table 6), including two cell lines with amplification of cMET (EBC-1 and GTL-16). […] To assess the regulation of the growth factor signaling pathway signature in these cells, these cell lines were treated with vehicle or 1 μM MK-2461. The cell lines were profiled at 6 and 12 hours post-treatment. Duplicate cultures were seeded in 6-well plates for each treatment group. Cell were ˜70% confluent at time of collection. Experiments were performed in duplicate.
# (§2) RNA was harvested from both vehicle-treated and compound treated cells, and regulation of the growth factor signaling pathway by MK-2461 was assessed by comparing gene expression profiles of MK-2461 treated cells to vehicle treated cells. For every probe on the microarray, the log(10) ratio of expression in the MK-2461 treated samples relative to the cell line-matched vehicle treated samples was calculated. The growth factor signaling pathway signature score was calculated as the mean log(10) ratio of the genes in the “up” arm of the signature (see Table 5a) minus the mean log(10) ratio of the genes in the “down” arm of the signature (see Table 5b).
# [2] = system: growth factor signaling pathway signature in GTL-16; test: as above; assay type: cell-based; conditions: 1 μM, 6 and 12 hours post-treatment
# Procedure: as §1, §2
# EBC-1 tumor cells = test: EBC-1 xenograft tumor growth; assay type: in vivo, HRLN female nu/nu mice
# Procedure: (§3) HRLN female nu/nu mice were subcutaneously implanted with 5×10^6 EBC-1 tumor cells. Tumors were allowed to grow an average size of 450-500 mg before treatment was administered. Xenografts were treated with vehicle or 11, 34, or 112 mpk of MK-2461 (n=4 for each treatment group). […] Treatment was administered PO BID for 7 days. Tumors were harvested 2 hours after the final dose, as this was the estimated time to achieve Cmax.
# [3] = system: growth factor signaling pathway signature in EBC-1 xenografts; test: Growth factor signaling pathway signature score in EBC-1 xenografts (microarray); assay type: in vivo, HRLN female nu/nu mice; conditions: 112 mpk PO BID for 7 days; tumors harvested 2 hours after the final dose
# Procedure: as §3
# RNA was harvested from both vehicle-treated and compound-treated samples. Regulation of the growth factor signaling pathway signature by MK-2461 was assessed by comparing gene expression profiles of MK-2461 treated samples to the mean gene expression profile of the 4 vehicle treated samples. The log(10) ratio of expression in the MK-2461 treated samples relative to the mean of the vehicle treated samples was calculated for every probe on the microarray. The growth factor signaling pathway signature score was calculated as the mean log(10) ratio of the genes in the “up” arm of the signature (see Table 5a) minus the mean log(10) ratio of the genes in the “down” arm of the signature (see Table 5b).
# CSF-1729 = test: Patient-derived tumor xenograft growth inhibition (T/C); assay type: in vivo, NMRI female nu/nu mice; conditions: 500 μg/mouse ip once weekly
# Description: (§4) NMRI female nu/nu mice were subcutaneously implanted with patient-derived tumor xenografts: lung adenocarcinoma LXFA 526, LXFA 629, LXFA 677, LXFA 749 and LXFA 1012; squamous cell lung carcinoma LXFE, 211, LXFE 397, LXFE 409 and LXFE 1422; small cell lung cancer LXFS 538, LXFS 573 and LXFS 615; colorectal carcinoma CXF 94LX, CXF 158, CXF 280, CXF 975, CXF 1103 and CXF 1729; renal cell carcinoma RXF 393, RXF 423, RXF 631 and RXF 1220; gastric cancer GXF 97, GXF 251 and GXF 281; ovarian cancer OVXF 550, OVXF 899, OVXF 1023, OVXF 1353 and OVXF 1544 (Oncotest GmbH, Freiburg, Germany). All tumor xenografts were derived from surgical specimen from human patients and directly transplanted into nude mice for propagation. Tumor xenografts were passaged in nude mice until establishment of a stable growth pattern. Master stocks of early passage xenografts were frozen in liquid nitrogen. A particular master stock batch is typically only used for about 20 further passages. Tumor fragments were obtained from xenografts in serial passage in nude mice. After removal of tumors from donor mice, they were cut into fragments (1-2 mm diameter) and placed RPMI 1640 culture medium until subcutaneous implantation. Recipient mice were anesthetized by inhalation of isoflurane. Tumor fragments (1-2 per mouse) were transplanted subcutaneously into the backs of recipient mice. Animals carrying at least one tumor of appropriate size (mean tumor diameter 6-8 mm, minimum acceptable tumor diameter 5 mm) were considered for randomization into treatment and vehicle control groups.
# (§5) MK-0646 IGF1R monoclonal antibody (U.S. Pat. No. 7,241,444) was diluted to a final dosing concentration of 2 mg/mL with 20 mM—L Histidine, 150 mM NaCl, 0.5% PS—80 w/w pH 6.5 at ratio of 1:5.65. The diluted treatment solution was administered at an application volume of 250 μl/mouse for the dose level of 500 μg/mouse. The control vehicle was 20 mM-L Histidine, 150 mM NaCl, 0.5% PS-80 w/w, pH6.5. Vehicle was administered at 250 μl/mouse. IGF1R monoclonal antibody and control vehicle were injected intraperitoneally. Test and control mice were injected once a week on the same days. The number of injections ranged from 2 to 7, depending on the duration of the experiment. Experiments were terminated when one of the limits set by the German animal regulations was met.
# (§6) Each experiment consisted of a vehicle control group (Group 1) receiving 20 mM-L Histidine, 150 mM NaCl, 0.5% PS-80 w/w, pH6.5 at 250 μL/mouse ip once weekly and one group treated with IGF-1R at 500 μg/mouse ip once weekly (Group 2). For sample collection purposes each experiment also comprised two groups (Groups 3 and 4) receiving a single therapy either with the vehicle or with IGF-1R at the same dose levels. According to the study protocol the group size in the efficacy groups (Groups 1 and 2) was 7 mice while the sample collection groups (Group 3 and 4) contained 3 nude mice each. In the experiments with CXF 1103 and RXF 631 bearing mice the efficacy groups contained 8 mice and group size in the efficacy groups of the experiment with LXFE 211 bearing nude mice was 9. […]
# (§7) Relative volumes of individual tumors (RTVs) for Day x were calculated by dividing the individual tumor volume on Day X (Tx) by the individual volume of the same tumor on Day 0 (T0) multiplied by 100%.
# (§8) [formula] Group tumor volumes were expressed as the median RTV of all tumors in a group (group median RTV). […]
# CSF-280 = test: as above; assay type: in vivo, NMRI female nu/nu mice; conditions: 500 μg/mouse ip once weekly
# Description: as §4, §5, §6, §7, §8
# CSF-94LX = test: as above; assay type: in vivo, NMRI female nu/nu mice; conditions: 500 μg/mouse ip once weekly
# Description: as §4, §5, §6, §7, §8
# LXFA-629 = test: as above; assay type: in vivo, NMRI female nu/nu mice; conditions: 500 μg/mouse ip once weekly
# Description: as §4, §5, §6, §7, §8
# OVXF-899 = test: as above; assay type: in vivo, NMRI female nu/nu mice; conditions: 500 μg/mouse ip once weekly
# Description: as §4, §5, §6, §7, §8
# MAXF-713 = test: as above; assay type: in vivo, NMRI female nu/nu mice; conditions: 500 μg/mouse ip once weekly
# SXF-1186 = test: as above; assay type: in vivo, NMRI female nu/nu mice; conditions: 500 μg/mouse ip once weekly
# [4] = system: growth factor signaling pathway signature in LXFA-629; test: Growth factor signaling pathway signature score post/pre-dose ratio in xenografts; assay type: in vivo, NMRI female nu/nu mice; conditions: 24 hours after a single treatment, 500 μg/mouse ip
# Procedure: (§9) Animals of Groups 3 and 4 were sacrificed for sample collection when the tumors had volumes between 400 and 600 mm^3 and 24 hours after a single treatment with either the control vehicle (Group 3) or IGF1R (Group 4). Tumors were cut into two parts, snap frozen in liquid nitrogen and stored at −80° C. RNA was harvested from both vehicle-treated and MK0646-treated samples as previously described for hybridization to DNA oligonucleotide arrays.
# (§10) Regulation of the growth factor signaling pathway signature by MK-0646 was assessed by comparing mean gene expression profiles of MK0646 treated samples for each xenograft to the mean gene expression profile of the vehicle treated samples. The log(10) ratio of expression in the MK-0646 treated samples relative to the vehicle treated samples was calculated for every probe on the microarray. The growth factor signaling pathway signature score was calculated as the mean log(10) ratio of the genes in the “up” arm of the signature (see Table 5a) minus the mean log(10) ratio of the genes in the “down” arm of the signature (see Table 5b). A post/pre-dose ratio of the growth factor signaling pathway signature score was then calculated and compared to the tumor inhibition T/C ratio for each xenograft (see FIG. 34).
# [5] = system: growth factor signaling pathway signature in MAXF-713; test: as above; assay type: in vivo, NMRI female nu/nu mice; conditions: 24 hours after a single treatment, 500 μg/mouse ip
# Procedure: as §9, §10
compound,measurement,setting,value
"CN(C[C@@H]1COCCO1)S(=O)(=O)Nc1ccc2ccc3ncc(-c4cnn(C)c4)cc3c(=O)c2c1 [MK-2461, N-[(2R)-1,4-dioxan-2-ylmethyl]-N-methyl-N′-[3-(1-methyl-1H-pyrazol-4-yl)-5-oxo-5H-benzo[4,5]cyclohepta[1,2-b]pyridin-7-yl]sulfamide]",sensitive to MK2461,HCT116,no
same,sensitive to MK2461,HCT15 (or AGS),no
same,sensitive to MK2461,A549,no
same,sensitive to MK2461,HT29,no
same,sensitive to MK2461,Colo205,no
same,sensitive to MK2461,EBC-1,sensitive to cell killing
same,sensitive to MK2461,EBC-1; listed as MK2461,✓
same,sensitive to MK2461,GTL-16,sensitive to cell killing
same,sensitive to MK2461,GTL-16; listed as MK2461,✓
same,inhibition of the growth factor signaling pathway signature,[1],Inhibition of the growth factor signaling pathway signature was observed; also recorded: inhibition of the growth factor signaling pathway was only observed
same,inhibition of the growth factor signaling pathway signature,[2],Inhibition of the growth factor signaling pathway signature was observed; also recorded: inhibition of the growth factor signaling pathway was only observed
same,effect on tumor growth,EBC-1 tumor cells; 11 mpk PO BID,no effect on tumor growth
same,effect on tumor growth,EBC-1 tumor cells; 34 mpk PO BID,no effect on tumor growth
same,efficacy in xenografts,EBC-1 tumor cells; 112 mpk,only dose that resulted in efficacy
same,tumor growth inhibition compared to vehicle treatment,EBC-1 tumor cells; 112 mpk PO BID,approximately 30%
same,inhibition of the growth factor signaling pathway signature in xenografts,[3],Inhibition of the growth factor signaling pathway signature was only observed
"MK-0646: IGF1R monoclonal antibody (U.S. Pat. No. 7,241,444)",tumor inhibition (T/C ratio),CSF-1729,moderate response
same,tumor inhibition (T/C ratio),CSF-280,moderate response
same,tumor inhibition (T/C ratio),CSF-94LX,strong tumor inhibition
same,tumor inhibition (T/C ratio),LXFA-629,strong tumor inhibition; also recorded: most tumor inhibition
same,tumor inhibition (T/C ratio),OVXF-899,strong tumor inhibition
same,tumor inhibition (T/C ratio),MAXF-713,strong tumor inhibition; also recorded: most tumor inhibition
same,tumor inhibition (T/C ratio),SXF-1186,moderate response
same,growth factor signaling score post/pre-dose ratio,[4],low
same,growth factor signaling score post/pre-dose ratio,[5],low
